# Measured values taken from US12371454B2, “Cyclic peptide compound having Kras inhibitory action” (priority 2019, dated 2025).
# Starred links: 1 amine or outer side, 2 acyl side, 3 side chain; linkers in the order of their positions; H or OH if unused. Positions of bridges follow the written chain, without caps; N, C: chain ends. Non-standard residues stand in square brackets, D forms with d. Residues, ends and D or L forms follow the SMILES beside them. *: point of attachment. hPhe(3-Cl-4-CF3) = N[C@@H](CCc1ccc(C(F)(F)F)c(Cl)c1)C(=O)O; NMeDab(N,N-(CH2CF2CH2)) = CN[C@@H](CCN1CC(F)(F)C1)C(=O)O; hPhe(3-F,4-CF3) = N[C@@H](CCc1ccc(C(F)(F)F)c(F)c1)C(=O)O; X38 = CN([C@@H](Cc1cccc(OC(F)(F)F)c1)C(=O)[*:2])[*:1]; hPhe(4-CF3) = N[C@@H](CCc1ccc(C(F)(F)F)cc1)C(=O)O; NMePhe(4-Cl) = CN[C@@H](Cc1ccc(Cl)cc1)C(=O)O; NMePhe(4-F) = CN[C@@H](Cc1ccc(F)cc1)C(=O)O; NMeGly(cPent) = CN[C@H](C(=O)O)C1CCCC1; Phe(3-I) = N[C@@H](Cc1cccc(I)c1)C(=O)O; dβ3hPip = O=C(C[C@H]1CCCCN1[*:1])[*:2]; NMeCha = CN[C@@H](CC1CCCCC1)C(=O)O; NMeChg = CN[C@H](C(=O)O)C1CCCCC1; NMeF = CN[C@@H](Cc1ccccc1)C(=O)O; NMeD = CN[C@@H](CC(=O)O)C(=O)O; NMeL = CN[C@@H](CC(C)C)C(=O)O; NMeV = CN[C@H](C(=O)O)C(C)C; d(β3hA) = C[C@@H](N)CC(=O)O; Iva = CC[C@](C)(N)C(=O)O; NMeA = CN[C@@H](C)C(=O)O; Nle = CCCC[C@H](N)C(=O)O; Piperidide = C1CCN(*)CC1; Pyrrolidide = C1CCN(*)C1; Ac5c = NC1(C(=O)O)CCCC1; Aze = O=C(O)[C@@H]1CCN1; Sar = CNCC(=O)O; Propyl = CCC*
# Molecular target: T1, Kras and SOS1 (biotin-tagged human Kras loaded with GDP, His-tagged human SOS1) (Homo sapiens, UniProt P01116, G12D)
# T1 construct: made in house; host or cells: E. coli (stated for Kras only)
# T1 sequence (P01116 1-188 isoform P01116-2 G12D): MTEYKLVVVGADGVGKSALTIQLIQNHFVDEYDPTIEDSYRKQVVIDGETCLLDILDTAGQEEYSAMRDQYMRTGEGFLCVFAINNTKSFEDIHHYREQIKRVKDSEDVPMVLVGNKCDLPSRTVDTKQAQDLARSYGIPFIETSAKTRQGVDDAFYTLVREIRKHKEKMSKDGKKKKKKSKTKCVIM
# Assay: Protein-protein interaction inhibition between Kras and SOS1 (KrasGl2D-SOS PPI) using AlphaScreen
# Type: binding
# Settings: AlphaScreen; biotin-tagged human Kras loaded with GDP, His-tagged human SOS1; read-out: KRAS G12D-SOS PPI IC50
# Summary of the method: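 Donor beads (nickel) hold His-SOS1; acceptor beads (streptavidin) hold biotin-Kras bound to GDP. Signal measured at 520-620 nm following 680 nm excitation.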
row,SMILES,IC50
1,CC[C@H](C)[C@@H]1NC(=O)[C@H](C)N(C)C(=O)C[C@@H](C(=O)N2CCCCC2)N(C)C(=O)[C@H](C(C)C)N(C)C(=O)C2(CCCC2)NC(=O)[C@@H]2CCCN2C(=O)[C@H](CCc2ccc(C(F)(F)F)c(Cl)c2)NC(=O)[C@H]2CCCN2C(=O)[C@H](CC2CCCCC2)N(C)C(=O)CN(C)C(=O)CN(C)C1=O [Compound 135] ([NMeA]I[Sar][Sar][NMeCha][dP][hPhe(3-Cl-4-CF3)]P[Ac5c][NMeV][NMeD]-Piperidide; lactam N-11),38 nM
2,"CC[C@H](C)[C@@H]1NC(=O)[C@H](CC(C)C)N(C)C(=O)C[C@H]2CCCCN2C(=O)[C@H](C(C)C)N(C)C(=O)C2(CCCC2)NC(=O)[C@@H]2CCCN2C(=O)[C@H](CCc2ccc(C(F)(F)F)c(F)c2)NC(=O)CN(C)C(=O)[C@H](CC2CCCCC2)N(C)C(=O)CN(C)C(=O)CN(C)C1=O [Compound 142] (cyclo([Ac5c][NMeV][dβ3hPip][NMeL]I[Sar][Sar][NMeCha][Sar][hPhe(3-F,4-CF3)]P))",38 nM
3,CCCC[C@@H]1NC(=O)[C@H](Cc2cccc(I)c2)NC(=O)CN(C)C(=O)[C@H](Cc2ccc(Cl)cc2)N(C)C(=O)CN(C)C(=O)CN(C)C(=O)[C@H]([C@@H](C)CC)NC(=O)[C@H](CC(C)C)N(C)C(=O)C[C@@H](C(=O)N2CCCCC2)N(C)C(=O)[C@H](CC(C)C)NC(=O)[C@H](Cc2cccc(OC(F)(F)F)c2)N(C)C1=O [Compound 143] ([NMeL]I[Sar][Sar][NMePhe(4-Cl)][Sar][Phe(3-I)][Nle][X38]L[NMeD]-Piperidide; lactam N-11),68 nM
4,CC[C@H](C)[C@@H]1NC(=O)[C@H](C)N(C)C(=O)C[C@@H](C)NC(=O)[C@H](C2CCCC2)N(C)C(=O)C2(CCCC2)NC(=O)[C@@H]2CCCN2C(=O)[C@H](CCc2ccc(C(F)(F)F)c(Cl)c2)NC(=O)CN(C)C(=O)[C@H](Cc2ccc(F)cc2)N(C)C(=O)[C@@H]2CCCN2C(=O)CN(C)C1=O [Compound 146] (cyclo([Ac5c][NMeGly(cPent)][d(β3hA)][NMeA]I[Sar]P[NMePhe(4-F)][Sar][hPhe(3-Cl-4-CF3)]P)),4 nM
5,COC[C@@H]1NC(=O)[C@H](CC(C)C)N(C)C(=O)C[C@@H](C(=O)N2CCCCC2)N(C)C(=O)[C@H](C2CCCCC2)N(C)C(=O)C2(CCCC2)NC(=O)[C@@H]2CCCN2C(=O)[C@H](CCc2ccc(C(F)(F)F)c(Cl)c2)NC(=O)CN(C)C(=O)[C@H](CC2CCCCC2)N(C)C(=O)CN(C)C(=O)CN(C)C1=O [Compound 148] ([NMeL]S(Me)[Sar][Sar][NMeCha][Sar][hPhe(3-Cl-4-CF3)]P[Ac5c][NMeChg][NMeD]-Piperidide; lactam N-11),1.8 nM
6,CC[C@H](C)[C@@H]1NC(=O)[C@H](CC(C)C)N(C)C(=O)C[C@@H](C)NC(=O)[C@H](C(C)C)N(C)C(=O)[C@](C)(CC)NC(=O)[C@@H]2CCCN2C(=O)[C@H](CCc2ccc(C(F)(F)F)c(Cl)c2)NC(=O)CN(C)C(=O)[C@H](CC2CCCCC2)N(C)C(=O)CN(C)C(=O)CN(C)C1=O [Compound 149] (cyclo(I[Sar][Sar][NMeCha][Sar][hPhe(3-Cl-4-CF3)]P[Iva][NMeV][d(β3hA)][NMeL])),51 nM
7,CC[C@H](C)[C@@H]1NC(=O)[C@H](C)N(C)C(=O)C[C@@H](C(=O)N2CCCC2)NC(=O)[C@H](C(C)C)N(C)C(=O)[C@H](Cc2ccccc2)N(C)C(=O)[C@H](CC(C)C)N(C)C(=O)[C@H](CCc2ccc(C(F)(F)F)cc2)NC(=O)CN(C)C(=O)[C@H](Cc2ccc(Cl)cc2)N(C)C(=O)CN(C)C(=O)CN(C)C1=O [Compound 152] ([NMeA]I[Sar][Sar][NMePhe(4-Cl)][Sar][hPhe(4-CF3)][NMeL][NMeF][NMeV]D-Pyrrolidide; lactam N-11),110 nM
8,"CCCOC[C@@H]1NC(=O)[C@H](CCN2CC(F)(F)C2)N(C)C(=O)[C@H](CCc2ccc(C(F)(F)F)c(Cl)c2)NC(=O)CN(C)C(=O)[C@H](CC2CCCCC2)N(C)C(=O)CN(C)C(=O)CN(C)C(=O)[C@H]([C@@H](C)CC)NC(=O)[C@H](C)N(C)C(=O)C[C@@H](C(=O)N2CCCCC2)N(C)C(=O)[C@H](C(C)C)N(C)C1=O [Compound 154] ([NMeA]I[Sar][Sar][NMeCha][Sar][hPhe(3-Cl-4-CF3)][NMeDab(N,N-(CH2CF2CH2))]S(Propyl)[NMeV][NMeD]-Piperidide; lactam N-11)",4.8 nM
9,CC[C@H](C)[C@@H]1NC(=O)[C@H](C(C)C)N(C)C(=O)C[C@@H](C)NC(=O)[C@H](CC(C)C)N(C)C(=O)C2(CCCC2)NC(=O)[C@H](CC(C)C)N(C)C(=O)[C@H](CCc2ccc(C(F)(F)F)c(Cl)c2)NC(=O)CN(C)C(=O)[C@H](Cc2ccc(Cl)cc2)N(C)C(=O)[C@@H]2CCN2C(=O)CN(C)C1=O [Compound 158] (cyclo([Ac5c][NMeL][d(β3hA)][NMeV]I[Sar][Aze][NMePhe(4-Cl)][Sar][hPhe(3-Cl-4-CF3)][NMeL])),10 nM
